# From US20070160491A1, “Method For Determining Lumen Penetration Of A Vapor Phase Sterilant” (priority 2002, published 2007)
# “And” between values parts separate entries of the source, which are not always exact repeats. Equal entries are not always repeated. Where two headings read alike, the source gives them in different places.
# Columns and labels:
# [1] = for rate constant of condensation k^C / rate constant of decomposition k^D: 3 mm stainless steel lumen
# Text: k=rate constant for losses in the lumen, sec^−1
# The rate of mass input per volume to the lumen 20 by internal processes is a negative term, whenever mass is lost in the lumen 20 by decomposition, absorption, adsorption and condensation. In that case the rate constant k is a negative number.
# The rate constant k cannot be measured experimentally inside the lumen 20 without disturbing the internal environment, so a value is assigned for each lumen material, such as stainless steel and polyethylene. The value is adjusted to provide an area scale, which correlates efficacy results from the sterilization cycles, as discussed below.
# (§1) An estimate of the area under the concentration-time curve is obtained by summing the one-second concentration values in the injection and diffusion steps of the cycle, as shown in Table 1 for sterilization cycles in a STERRAD® 200 […] sterilizer available from Advanced Sterilization Products division of Ethicon, Inc., Irvine, Calif., with different lumens in the validation load. The area scale for stainless steel (SS) is established by setting the value of the rate constant k equal to 0.46 sec^−1 to give an area of approximately 100 mg−sec/l for the cycles with 3 mm×500 mm stainless steel lumens at 30° C.
# (§2) Correcting the rate constant from 0.46 sec^−1 at 30° C. to 1.41 sec^−1 at 5° C. is initiated by writing the rate constant as the sum of the decomposition rate constant k^D and the condensation rate constant k^C. […] For a rate constant 0.46 sec^−1 at 30° C., each individual rate constant of decomposition k^D and condensation k^C is approximately 0.46/2=0.23 sec^−1. […] The rate constant of decomposition k^D at 5° C. is calculated from the rate constant of decomposition k^D at 30° C. and the rate factors for decomposition at 30° C. and 5° C.: k^D at 5° C.=0.23 sec^−1×(1 rate factor at 5° C./7 rate factor at 30° C.)=0.03 sec^−1. […] Finally, the rate constant at 5° C. is calculated as the sum of the rate constants of condensation k^C and of decomposition k^D at 5° C.: k at 5° C.=1.38 sec^−1+0.03 sec^−1=1.41 sec^−1.
# The adjustment for diameter is made in Table 1 by correcting the rate constant 0.46 sec^−1 for 3 mm stainless steel lumens to 4.14 sec^−1 for 1 mm lumens with factors for the surface to volume ratio and diffusion radius ratio.
# Surface to volume ratio correction factor=(surface/volume)1 mm/(surface/volume)3 mm=(2πrL)1 mm/(2πrL/πr^2L)3 mm=(1/r)1 mm/(1/r)3 mm=[…]=1.5 mm/0.5 mm=3
# In addition to correction for surface to volume ratio, correction of the rate constant 0.46 sec^−1 for diffusion radius is necessary, because diffusion to the wall of the smaller lumen is greater than for the larger one. Diffusion radius ratio correction factor=(r)3 mm/(r)1 mm=1.5 mm/0.5 mm=3
# The area scale for the second lumen material, polyethylene (PE), in Table 1 is established similarly for a limiting case in the STERRAD® 200 Sterilizer. The rate constant is set at 0.33 sec^−1 for 1 mm×500 mm lumens to give an area of approximately 100 mg−sec/l. […] The rate constant 0.33 sec^−1 for lumens with 1 mm diameter is corrected with factors for the surface to volume ratio and diffusion radius ratio to obtain the rate constant 0.037 sec-^−1 for 3 mm lumens.
# [2] = cited from earlier work
# [3] = 30 °C
# Procedure: as §2
# [4] = system: biological indicators (test microorganisms)
# Text: However, other process variables are also important, such as chamber and load temperature, size and composition of the load and exposure time. For a fixed load configuration in a particular sterilizer with a qualified sterilization cycle, temperature remains relatively constant during injection, so concentration and exposure time become the most important control variables. Area under a concentration-time curve is a useful index for quantifying cycle performance to compare with efficacy as measured via biological indicators.
# as §1
# [5] = cited from earlier work; remark: listed apart in the source
# [6] = lumen 0.8 × 100 mm SS, 30 °C, injection time 6.5 min
# [7] = lumen 0.8 × 150 mm SS, 30 °C, injection time 6.5 min
# [8] = lumen 1 × 125 mm SS, 30 °C, injection time 6.5 min
# [9] = lumen 1 × 500 mm PE, 30 °C, injection time 6.5 min
# [10] = lumen 1 × 700 mm PE, 30 °C, injection time 6.5 min
# [11] = lumen 3 × 400 mm SS, 5 °C, injection time 6.5 min
# [12] = lumen 3 × 400 mm SS, 30 °C, injection time 1 min
# [13] = lumen 3 × 400 mm SS, 30 °C, injection time 2 min
# [14] = lumen 3 × 400 mm SS, 30 °C, injection time 6.5 min
# [15] = lumen 3 × 500 mm SS, 30 °C, injection time 6.5 min
# [16] = lumen 3 × 1000 mm PE, 30 °C, injection time 6.5 min
# [17] = lumen 3 × 1500 mm PE, 30 °C, injection time 6.5 min
structure (smiles),measurement,setting,value
OO [hydrogen peroxide],"−k, rate constant for losses in the lumen","[1]; 0.8 mm stainless steel lumens, 30 °C, k3 mm × 3.75 × 3.75",6.47 s⁻¹
same,"−k, rate constant for losses in the lumen","[1]; 0.8 mm stainless steel lumens, 30 °C, k3 mm × 3.75 × 3.75, listed as H2O2",6.47 s⁻¹
same,"−k, rate constant for losses in the lumen","[1]; 1 mm polyethylene lumens, 30 °C, k chosen to give 100 mg-sec/l area threshold",0.33 s⁻¹
same,"−k, rate constant for losses in the lumen","[1]; 1 mm polyethylene lumens, 30 °C, k chosen to give 100 mg-sec/l area threshold, listed as H2O2",0.33 s⁻¹
same,"−k, rate constant for losses in the lumen","[1]; 1 mm stainless steel lumens, 30 °C, k3 mm × 3 × 3",4.14 s⁻¹
same,"−k, rate constant for losses in the lumen","[1]; 1 mm stainless steel lumens, 30 °C, k3 mm × 3 × 3, listed as H2O2",4.14 s⁻¹
same,"−k, rate constant for losses in the lumen","[1]; 1 mm stainless steel lumens, 30 °C, k3 mm × 3 × 3, listed as Hydrogen Peroxide",4.14 ^d sec^−1
same,"−k, rate constant for losses in the lumen","[1]; 3 mm polyethylene lumens, 30 °C, k1 mm/(3 × 3)",0.037 s⁻¹
same,"−k, rate constant for losses in the lumen","[1]; 3 mm polyethylene lumens, 30 °C, k1 mm/(3 × 3), listed as H2O2",0.037 s⁻¹
same,"−k, rate constant for losses in the lumen","[1]; 3 mm polyethylene lumens, 30 °C, k1 mm/(3 × 3), listed as Hydrogen Peroxide",0.037 ^f sec^−1 and 0.037 sec^−1
same,rate constant of condensation k^C,[1]; 5 °C,1.38 s⁻¹
same,rate constant of decomposition k^D,[1]; 5 °C,0.03 s⁻¹
same,rate constant of condensation k^C,[1]; 30 °C,~0.23 s⁻¹
same,rate constant of decomposition k^D,[1]; 30 °C,~0.23 s⁻¹
same,"−k, rate constant for losses in the lumen","[1]; 3 mm stainless steel lumens, 5 °C, calculated from k at 30 °C, vapor pressure data and decomposition rate factor",1.41 s⁻¹
same,"−k, rate constant for losses in the lumen","[1]; 3 mm stainless steel lumens, 5 °C, calculated from k at 30 °C, vapor pressure data and decomposition rate factor, listed as H2O2",1.41 s⁻¹
same,"−k, rate constant for losses in the lumen","[1]; 3 mm stainless steel lumens, 5 °C, calculated from k at 30 °C, vapor pressure data and decomposition rate factor, listed as Hydrogen Peroxide",1.41 ^c sec^−1
same,"−k, rate constant for losses in the lumen","[1]; 3 mm stainless steel lumens, 30 °C, k chosen to give 100 mg-sec/l area threshold",0.46 s⁻¹
same,"−k, rate constant for losses in the lumen","[1]; 3 mm stainless steel lumens, 30 °C, k chosen to give 100 mg-sec/l area threshold, listed as H2O2",0.46 s⁻¹
same,vapor pressure of hydrogen peroxide,[2]; at 5 °C,0.46 mm Hg
same,vapor pressure of hydrogen peroxide,[2]; at 30 °C,2.77 mm Hg
same,Rate Factor for Decomposition,[3],7
same,Fraction Positive Biological Indicators,[4]; [6],0/48
same,Indicator Results Zone,[4]; [6],Negative
same,Fraction Positive Biological Indicators,[4]; [7],2/24
same,Indicator Results Zone,[4]; [7],Positive
same,Fraction Positive Biological Indicators,[4]; [8],0/36
same,Indicator Results Zone,[4]; [8],Negative
same,Fraction Positive Biological Indicators,[4]; [9],0/36
same,Indicator Results Zone,[4]; [9],Mixed
same,Fraction Positive Biological Indicators,[4]; [10],1/12
same,Indicator Results Zone,[4]; [10],Positive
same,Fraction Positive Biological Indicators,[4]; [11],1/72
same,Indicator Results Zone,[4]; [11],Positive
same,Fraction Positive Biological Indicators,[4]; [12],4/72
same,Indicator Results Zone,[4]; [12],Mixed
same,Fraction Positive Biological Indicators,[4]; [13],0/72
same,Indicator Results Zone,[4]; [13],Mixed
same,Fraction Positive Biological Indicators,[4]; [14],0/72
same,Indicator Results Zone,[4]; [14],Negative
same,Fraction Positive Biological Indicators,[4]; [15],0/96
same,Indicator Results Zone,[4]; [15],Mixed
same,Fraction Positive Biological Indicators,[4]; [16],0/36
same,Indicator Results Zone,[4]; [16],Negative
same,Indicator Results Zone,"[4]; lumen 3 × 1500 mm PE, 30 °C, injection time 20, 25, 30 min",Negative
same,Fraction Positive Biological Indicators,[4]; [17],1/36
same,Indicator Results Zone,[4]; [17],Mixed
same,Fraction Positive Biological Indicators,"[4]; lumen 3 × 1500 mm PE, 30 °C, injection time 20 min",0/12
same,Fraction Positive Biological Indicators,"[4]; lumen 3 × 1500 mm PE, 30 °C, injection time 25 min",0/12
same,Fraction Positive Biological Indicators,"[4]; lumen 3 × 1500 mm PE, 30 °C, injection time 30 min",0/12
same,Fraction Positive BIs,"[4]; lumen 3 × 1500 mm PE, 30 °C, injection times 20, 25, 30 min pooled",0/36
same,Rate Factor for Decomposition,[5]; 5 °C (base case),1
same,Rate Factor for Decomposition,"[5]; 5 °C (base case), listed as Hydrogen Peroxide",1 Base Case
same,Rate Factor for Decomposition,[5]; 15 °C,2.2
same,Rate Factor for Decomposition,[5]; 25 °C,4.84
same,Rate Factor for Decomposition,[5]; 35 °C,10.65
same,Rate Factor for Decomposition,[5]; 45 °C,23.4
same,factor by which the decomposition rate increases,[5]; per each 10 °C rise in temperature,2.2
